SMILES strings stand for the structures. Active and inactive are the calls of the source. A value given as a limit tells only on which side of the number the result lay.

Data on six compounds can be found in ChEMBL document CHEMBL1201862, “PubChem BioAssay data set” (2004).

For test [1], the target named is Neuropeptides B/W receptor type 1 (Homo sapiens, UniProt P48145). As to the kind of experiment: Fluorescence-based dose response cell-based high throughput screening assay to identify antagonists of the G-protein coupled receptor 7 (GPR7). [Related pubchem assays: 1952 (Screening assay (GPR7 antagonists).), 1880 (Summary AID.)]. The test is classed as functional.

For test [2], the target named is Melanin-concentrating hormone receptor 1 (Homo sapiens, UniProt Q99705). As to the kind of experiment: Fluorescence-based counterscreen for antagonists of the G-protein coupled receptor 7 (GPR7): cell-based high throughput dose response assay to identify antagonists of the melanin-concentrating hormone receptor 1 (MCHR1). The test is classed as functional. In general terms: A counterscreen serves to expose hits that act by an unwanted route or on another target.

Test [3] deals with Nucleotide-binding oligomerization domain-containing protein 2 (Homo sapiens, UniProt Q9HC29). As to the kind of experiment: NOD2 signaling inhibitors, cell-based, luminescence, uHTS, HEK293 (AID 1566). The test is classed as functional.
A further test addresses Tumor necrosis factor (Homo sapiens, UniProt P01375). As to the kind of experiment: TNFa-triggered NF-kB activation inhibitors, SAR follow-up, cell-based, revised (AID 2337). The test is classed as functional.
A short description of test [4]: C. albicans growth with fluconazole, confirmation, fluorescence, retest (AID 2467). The test is classed as functional, cell-based.
Test [5] deals with HEK293. As to the kind of experiment: NOD2 signaling inhibitors in MDP-stimulated cells, cell-based, uHTS, luminescence (AID 2001). It is filed as functional. The settings on record: Homo sapiens.
In test [6] the test system is HEK293. As to the kind of experiment: NOD1 signaling inhibitors, primary screen, cell-based, luminescence, uHTS (AID 1578). It is filed as functional. The note with it: Homo sapiens.
Test [7] has as its target T1, Nucleotide-binding oligomerization domain-containing protein 1 (Homo sapiens, UniProt Q9Y239).
T1 sequence (Q9Y239 whole entry): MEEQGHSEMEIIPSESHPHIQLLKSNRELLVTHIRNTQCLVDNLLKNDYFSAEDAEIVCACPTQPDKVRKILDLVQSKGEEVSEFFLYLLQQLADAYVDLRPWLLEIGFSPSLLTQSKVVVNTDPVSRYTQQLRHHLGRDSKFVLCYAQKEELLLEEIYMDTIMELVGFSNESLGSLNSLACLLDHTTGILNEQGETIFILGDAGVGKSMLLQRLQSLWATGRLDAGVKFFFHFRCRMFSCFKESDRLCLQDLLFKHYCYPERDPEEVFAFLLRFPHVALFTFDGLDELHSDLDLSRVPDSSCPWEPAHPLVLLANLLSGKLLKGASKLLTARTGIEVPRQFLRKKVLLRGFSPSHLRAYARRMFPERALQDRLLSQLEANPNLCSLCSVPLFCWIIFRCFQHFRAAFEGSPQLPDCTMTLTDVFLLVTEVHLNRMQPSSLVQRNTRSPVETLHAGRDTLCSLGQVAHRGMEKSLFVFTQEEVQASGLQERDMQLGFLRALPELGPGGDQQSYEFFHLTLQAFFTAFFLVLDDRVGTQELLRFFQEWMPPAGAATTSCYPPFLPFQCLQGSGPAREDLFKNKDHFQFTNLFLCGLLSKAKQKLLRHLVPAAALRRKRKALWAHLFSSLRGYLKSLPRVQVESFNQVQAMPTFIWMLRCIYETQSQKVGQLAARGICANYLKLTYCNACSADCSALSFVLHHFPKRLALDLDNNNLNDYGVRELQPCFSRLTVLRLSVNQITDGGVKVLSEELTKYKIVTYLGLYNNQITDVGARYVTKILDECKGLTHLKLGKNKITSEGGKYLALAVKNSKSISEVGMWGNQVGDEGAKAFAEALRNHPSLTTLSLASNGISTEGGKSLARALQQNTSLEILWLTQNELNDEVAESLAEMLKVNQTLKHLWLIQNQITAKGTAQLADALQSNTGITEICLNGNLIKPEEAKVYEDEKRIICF
As to the kind of experiment: NOD1 signaling inhibitors, SAR follow-up, revised (AID 2333). It is filed as functional.

Test [8] relates to HEK293. As to the kind of experiment: cells. The note with it: Homo sapiens.
Test [9] deals with T2, Heat shock 70 kDa protein 1A (Homo sapiens, UniProt P0DMV8). The test can be described thus: Hsp70 inhibitors, biochemical, TR-FRET (AID 786). On the technique in general: Time-resolved FRET reads energy transfer from a long-lived donor to a nearby acceptor.
For test [10], the system named is HEK293. The test can be described thus: cells. It is filed as functional, cell-based. The settings on record: Homo sapiens.
In test [11] the test system is HEK293. As to the kind of experiment: cells. The test is classed as functional, cell-based. The settings on record: Homo sapiens. This is another data set of the same source.
The subject of test [12] is HEK293. The test can be described thus: cells. It is filed as functional, cell-based. The note with it: Homo sapiens. The source holds these as a separate data set.
Test [13] is described as follows: NIH-3T3 fibroblast cytotoxicity, dose response, cytotoxicity control, cell-based, fluorescence, Alamar Blue, secondary assay (AID 2327).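 Also: NIH-3T3 mouse fibroblasts cultured with fluconazole at 8 µg/mL.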 It is filed as functional. On the technique in general: The colour change of resazurin is a common sign of viable cells or microbes.
In test [14] the target is T2, Heat shock 70 kDa protein 1A. As to the kind of experiment: Hsp70 inhibitors, probe displacement, primary screen, biochemical, fluorescence polarization (AID 583).
The next test deals with Streptococcus. As to the kind of experiment: Group A Streptococcus viability loss, dose response, counter-screen for streptokinase expression inhibitor project, luminescence, BacTiterGlo (AID 1915).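 Also: potency for reduction of bacterial viability or growth.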 It is filed as functional, organism-based.
Test [15] deals with Serine/threonine-protein phosphatase (Homo sapiens, UniProt Q9BPW0). As to the kind of experiment: Counterscreen for inhibitors of PP1: fluorescence-based biochemical high throughput dose response assay to identify inhibitors of Protein Phosphatase 5 (PP5). [Related pubchem assays: 2034 (Summary (PP5 inhibitors)), 1987 (PP5 inhibitors in singlate), 2235 (PP1 inhibitors in singlate)].

The test system of a further test is Vero. As to the kind of experiment: Vero cell cytotoxicity, cytotoxicity control for flavivirus capping enzyme inhibitors (AID 588742). The settings on record: Chlorocebus sabaeus. It is filed as functional.
The target of test [16] is Serine/threonine-protein phosphatase PP1-alpha catalytic subunit (Homo sapiens, UniProt P62136). The test can be described thus: PP1 phosphatase inhibitors, dose response, biochemical, fluorescence (AID 2403).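 Also: phosphatase turnover of OMFP into fluorescent 3-O-methylfluorescein.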
For another test, the target named is Nonstructural protein 1 (Influenza A virus, UniProt Q194T2). The test is classed as functional, Influenza A virus (A/California/07/2009(H1N1)).
Test [17] concerns the target Disintegrin and metalloproteinase domain-containing protein 17 (Homo sapiens, UniProt P78536). As to the kind of experiment: exosite inhibitors of ADAM17, dose response, biochemical (AID 743260).
The test system of test [18] is Streptococcus sp. 'group A'. As to the kind of experiment: growth inhibition of control SK(-) GAS strain, dose response, counter-screen for streptokinase expression inhibitor project, luminescence, kanamycin, BacTiterGlo, confirmation (AID 1900). It is filed as functional, organism-based.
For test [19], the target named is T3, Alkaline phosphatase, tissue-nonspecific isozyme (Homo sapiens, UniProt P05186).
T3 sequence (P05186 whole entry): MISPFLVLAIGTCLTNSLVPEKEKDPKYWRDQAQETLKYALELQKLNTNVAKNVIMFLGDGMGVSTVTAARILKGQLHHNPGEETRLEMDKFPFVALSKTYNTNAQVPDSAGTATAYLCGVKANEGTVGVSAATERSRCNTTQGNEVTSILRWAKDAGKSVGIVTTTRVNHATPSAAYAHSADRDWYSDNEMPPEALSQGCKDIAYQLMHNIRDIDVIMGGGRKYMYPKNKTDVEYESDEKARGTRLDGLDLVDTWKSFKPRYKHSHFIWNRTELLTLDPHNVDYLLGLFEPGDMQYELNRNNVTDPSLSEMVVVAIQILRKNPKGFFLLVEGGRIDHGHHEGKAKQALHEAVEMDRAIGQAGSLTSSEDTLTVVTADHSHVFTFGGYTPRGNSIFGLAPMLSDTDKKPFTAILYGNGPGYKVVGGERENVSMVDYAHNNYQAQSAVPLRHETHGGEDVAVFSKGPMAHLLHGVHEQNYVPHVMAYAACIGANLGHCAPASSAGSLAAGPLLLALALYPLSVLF

A further test deals with T4, Streptokinase A (Streptococcus pyogenes serotype M1, UniProt P10520).
T4 sequence (P10520 whole entry): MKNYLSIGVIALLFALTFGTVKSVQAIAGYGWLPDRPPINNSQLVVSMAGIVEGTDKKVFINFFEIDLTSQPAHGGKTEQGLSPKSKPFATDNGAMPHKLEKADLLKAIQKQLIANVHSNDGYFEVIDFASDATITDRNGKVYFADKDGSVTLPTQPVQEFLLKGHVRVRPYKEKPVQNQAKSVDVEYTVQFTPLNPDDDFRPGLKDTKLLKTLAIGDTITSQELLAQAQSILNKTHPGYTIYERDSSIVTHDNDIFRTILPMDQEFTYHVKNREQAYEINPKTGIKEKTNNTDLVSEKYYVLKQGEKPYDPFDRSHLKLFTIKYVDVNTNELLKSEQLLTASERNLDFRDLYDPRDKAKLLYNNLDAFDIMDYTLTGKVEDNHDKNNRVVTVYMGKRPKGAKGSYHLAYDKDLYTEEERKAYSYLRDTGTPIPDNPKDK
As to the kind of experiment: S. pyogenes streptokinase expression inhibitors, potency, dose response, plasminogen activation absorbance, OD405 (AID 1914).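 Also: secreted streptokinase activity via plasminogen activation per viability signal from cell pellet.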 It is filed as functional, Streptococcus pyogenes M1 GAS.

The target in test [20] is Lysosomal acid glucosylceramidase (Homo sapiens, UniProt P04062). The test can be described thus: Dose response cell-based high throughput screening assay to identify enhancers of beta-glucosidase activity. [Related pubchem assays: 784 ]. It is filed as functional.
Another test deals with T5, Aspartyl aminopeptidase (Plasmodium falciparum 3D7, UniProt Q8I2J3).
T5 sequence (Q8I2J3 whole entry): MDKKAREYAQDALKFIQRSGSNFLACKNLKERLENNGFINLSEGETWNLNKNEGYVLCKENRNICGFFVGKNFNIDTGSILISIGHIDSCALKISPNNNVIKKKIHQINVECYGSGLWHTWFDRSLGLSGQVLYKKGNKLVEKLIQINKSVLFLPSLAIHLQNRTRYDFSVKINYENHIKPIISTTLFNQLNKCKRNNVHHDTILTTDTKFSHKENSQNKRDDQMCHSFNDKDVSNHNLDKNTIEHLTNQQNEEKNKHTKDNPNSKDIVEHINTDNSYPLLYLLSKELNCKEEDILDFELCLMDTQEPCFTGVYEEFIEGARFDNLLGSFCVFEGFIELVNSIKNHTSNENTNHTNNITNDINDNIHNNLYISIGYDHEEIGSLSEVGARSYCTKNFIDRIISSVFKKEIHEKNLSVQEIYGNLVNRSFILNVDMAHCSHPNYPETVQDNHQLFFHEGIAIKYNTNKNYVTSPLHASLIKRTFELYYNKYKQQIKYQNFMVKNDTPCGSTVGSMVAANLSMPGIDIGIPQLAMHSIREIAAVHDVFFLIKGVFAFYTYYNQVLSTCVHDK

A further test has as its target Procathepsin L (Homo sapiens, UniProt P07711).
For the next test, the target named is Cytochrome P450 2D6 (Homo sapiens, UniProt P10635). As to the kind of experiment: qHTS Assay for Inhibitors and Substrates of Cytochrome P450 2D6. [Related pubchem assays: 410 ]. It is filed as ADME. The note with it: read-out: Potency.
Cytochrome P450 2D6, sequence (P10635 whole entry): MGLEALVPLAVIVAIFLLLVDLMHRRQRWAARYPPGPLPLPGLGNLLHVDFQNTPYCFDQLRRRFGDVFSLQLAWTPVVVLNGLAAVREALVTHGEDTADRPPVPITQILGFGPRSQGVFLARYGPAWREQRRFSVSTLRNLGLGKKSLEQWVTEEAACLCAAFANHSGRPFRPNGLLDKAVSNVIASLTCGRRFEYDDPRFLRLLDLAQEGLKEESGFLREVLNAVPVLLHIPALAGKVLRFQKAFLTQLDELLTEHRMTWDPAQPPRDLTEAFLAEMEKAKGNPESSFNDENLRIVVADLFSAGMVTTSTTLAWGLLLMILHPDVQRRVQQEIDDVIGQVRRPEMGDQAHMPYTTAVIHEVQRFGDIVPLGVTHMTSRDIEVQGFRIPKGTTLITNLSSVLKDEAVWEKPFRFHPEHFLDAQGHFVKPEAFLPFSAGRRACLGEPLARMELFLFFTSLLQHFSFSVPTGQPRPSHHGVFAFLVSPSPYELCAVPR

T2 sequence (P0DMV8 whole entry): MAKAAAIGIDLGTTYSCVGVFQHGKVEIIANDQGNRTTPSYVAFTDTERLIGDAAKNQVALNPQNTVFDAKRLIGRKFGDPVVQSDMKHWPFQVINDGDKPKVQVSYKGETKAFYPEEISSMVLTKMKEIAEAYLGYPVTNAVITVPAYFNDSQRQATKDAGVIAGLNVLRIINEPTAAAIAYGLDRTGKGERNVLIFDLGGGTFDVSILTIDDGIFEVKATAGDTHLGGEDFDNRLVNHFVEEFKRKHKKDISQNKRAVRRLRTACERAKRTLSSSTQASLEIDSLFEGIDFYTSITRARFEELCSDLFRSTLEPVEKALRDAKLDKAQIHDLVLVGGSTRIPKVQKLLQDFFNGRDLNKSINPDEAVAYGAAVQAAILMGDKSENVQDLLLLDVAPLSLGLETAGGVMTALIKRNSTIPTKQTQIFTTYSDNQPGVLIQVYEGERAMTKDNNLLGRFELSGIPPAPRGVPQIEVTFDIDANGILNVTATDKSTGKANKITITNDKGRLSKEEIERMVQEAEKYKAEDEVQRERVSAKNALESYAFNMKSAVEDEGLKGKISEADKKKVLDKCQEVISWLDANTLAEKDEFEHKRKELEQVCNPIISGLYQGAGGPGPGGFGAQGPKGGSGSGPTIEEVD
Serine/threonine-protein phosphatase, sequence (Q9BPW0 whole entry): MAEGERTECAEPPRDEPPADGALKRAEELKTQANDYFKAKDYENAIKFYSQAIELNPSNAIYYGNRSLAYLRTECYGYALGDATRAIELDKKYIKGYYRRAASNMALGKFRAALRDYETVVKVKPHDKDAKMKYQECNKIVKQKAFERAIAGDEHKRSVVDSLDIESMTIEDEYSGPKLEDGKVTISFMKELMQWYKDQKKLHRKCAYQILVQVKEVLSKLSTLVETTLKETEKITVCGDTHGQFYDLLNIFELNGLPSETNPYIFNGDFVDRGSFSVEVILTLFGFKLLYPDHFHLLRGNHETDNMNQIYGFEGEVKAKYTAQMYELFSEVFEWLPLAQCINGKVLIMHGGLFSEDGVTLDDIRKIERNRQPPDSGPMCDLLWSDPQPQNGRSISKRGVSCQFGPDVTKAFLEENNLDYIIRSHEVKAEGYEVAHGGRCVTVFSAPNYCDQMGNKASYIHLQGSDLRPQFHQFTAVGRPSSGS
Serine/threonine-protein phosphatase PP1-alpha catalytic subunit, sequence (P62136 whole entry): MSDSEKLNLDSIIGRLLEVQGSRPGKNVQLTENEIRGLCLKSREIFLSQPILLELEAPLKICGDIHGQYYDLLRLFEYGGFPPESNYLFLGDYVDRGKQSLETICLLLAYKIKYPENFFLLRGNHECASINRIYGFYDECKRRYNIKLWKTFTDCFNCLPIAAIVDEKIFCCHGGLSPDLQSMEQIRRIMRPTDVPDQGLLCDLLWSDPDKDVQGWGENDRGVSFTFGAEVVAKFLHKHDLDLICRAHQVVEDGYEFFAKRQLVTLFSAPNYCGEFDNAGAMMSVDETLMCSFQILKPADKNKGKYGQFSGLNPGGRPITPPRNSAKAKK
Tumor necrosis factor, sequence (P01375 whole entry): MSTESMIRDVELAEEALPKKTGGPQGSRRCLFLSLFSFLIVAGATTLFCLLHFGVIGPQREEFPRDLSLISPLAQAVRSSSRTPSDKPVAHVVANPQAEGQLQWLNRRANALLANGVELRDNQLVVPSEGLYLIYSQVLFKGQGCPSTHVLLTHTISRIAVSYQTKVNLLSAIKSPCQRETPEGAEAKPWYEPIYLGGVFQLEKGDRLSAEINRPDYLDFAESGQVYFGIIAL
Lysosomal acid glucosylceramidase, sequence (P04062 whole entry): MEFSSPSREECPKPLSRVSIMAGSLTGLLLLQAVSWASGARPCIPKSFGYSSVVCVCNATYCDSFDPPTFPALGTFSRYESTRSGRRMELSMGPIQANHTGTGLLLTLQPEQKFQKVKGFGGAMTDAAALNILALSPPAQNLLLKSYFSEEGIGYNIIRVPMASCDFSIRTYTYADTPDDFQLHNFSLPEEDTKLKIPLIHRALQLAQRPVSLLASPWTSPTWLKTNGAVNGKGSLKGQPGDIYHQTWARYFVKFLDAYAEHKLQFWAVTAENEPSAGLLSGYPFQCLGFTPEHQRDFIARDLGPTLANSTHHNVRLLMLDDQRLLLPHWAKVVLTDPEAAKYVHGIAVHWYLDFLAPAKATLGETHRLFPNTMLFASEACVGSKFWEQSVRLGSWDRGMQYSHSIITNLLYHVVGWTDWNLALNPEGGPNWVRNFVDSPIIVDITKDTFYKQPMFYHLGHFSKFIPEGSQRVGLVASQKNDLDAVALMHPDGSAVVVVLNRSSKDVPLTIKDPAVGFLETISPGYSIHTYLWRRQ
Nonstructural protein 1, sequence (Q194T2 whole entry, the tested form may be a part): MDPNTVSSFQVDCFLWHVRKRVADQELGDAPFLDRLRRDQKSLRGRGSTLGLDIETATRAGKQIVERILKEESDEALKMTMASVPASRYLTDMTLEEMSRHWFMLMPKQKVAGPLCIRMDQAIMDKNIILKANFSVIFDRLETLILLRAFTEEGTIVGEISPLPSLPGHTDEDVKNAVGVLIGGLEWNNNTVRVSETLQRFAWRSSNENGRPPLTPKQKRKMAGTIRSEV
Melanin-concentrating hormone receptor 1, sequence (Q99705 whole entry): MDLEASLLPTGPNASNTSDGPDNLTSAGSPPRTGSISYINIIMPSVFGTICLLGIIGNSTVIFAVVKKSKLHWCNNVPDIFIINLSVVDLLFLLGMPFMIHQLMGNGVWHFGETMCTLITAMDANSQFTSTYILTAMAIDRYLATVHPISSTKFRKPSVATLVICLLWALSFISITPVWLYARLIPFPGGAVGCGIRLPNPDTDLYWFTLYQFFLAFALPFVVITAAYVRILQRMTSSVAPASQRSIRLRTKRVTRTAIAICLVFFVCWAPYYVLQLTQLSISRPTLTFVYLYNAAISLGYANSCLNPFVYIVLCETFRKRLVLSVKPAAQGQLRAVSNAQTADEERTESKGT
Neuropeptides B/W receptor type 1, sequence (P48145 whole entry): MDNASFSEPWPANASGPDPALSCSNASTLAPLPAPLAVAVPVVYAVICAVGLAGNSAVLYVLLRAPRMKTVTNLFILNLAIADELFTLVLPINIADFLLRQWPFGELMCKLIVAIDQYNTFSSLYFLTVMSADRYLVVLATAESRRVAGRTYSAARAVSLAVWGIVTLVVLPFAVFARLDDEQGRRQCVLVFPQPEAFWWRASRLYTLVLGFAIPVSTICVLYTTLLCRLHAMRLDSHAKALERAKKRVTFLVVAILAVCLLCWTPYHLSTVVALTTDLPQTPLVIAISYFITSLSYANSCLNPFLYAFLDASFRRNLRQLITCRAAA
Nucleotide-binding oligomerization domain-containing protein 2, sequence (Q9HC29 whole entry, the tested form may be a part): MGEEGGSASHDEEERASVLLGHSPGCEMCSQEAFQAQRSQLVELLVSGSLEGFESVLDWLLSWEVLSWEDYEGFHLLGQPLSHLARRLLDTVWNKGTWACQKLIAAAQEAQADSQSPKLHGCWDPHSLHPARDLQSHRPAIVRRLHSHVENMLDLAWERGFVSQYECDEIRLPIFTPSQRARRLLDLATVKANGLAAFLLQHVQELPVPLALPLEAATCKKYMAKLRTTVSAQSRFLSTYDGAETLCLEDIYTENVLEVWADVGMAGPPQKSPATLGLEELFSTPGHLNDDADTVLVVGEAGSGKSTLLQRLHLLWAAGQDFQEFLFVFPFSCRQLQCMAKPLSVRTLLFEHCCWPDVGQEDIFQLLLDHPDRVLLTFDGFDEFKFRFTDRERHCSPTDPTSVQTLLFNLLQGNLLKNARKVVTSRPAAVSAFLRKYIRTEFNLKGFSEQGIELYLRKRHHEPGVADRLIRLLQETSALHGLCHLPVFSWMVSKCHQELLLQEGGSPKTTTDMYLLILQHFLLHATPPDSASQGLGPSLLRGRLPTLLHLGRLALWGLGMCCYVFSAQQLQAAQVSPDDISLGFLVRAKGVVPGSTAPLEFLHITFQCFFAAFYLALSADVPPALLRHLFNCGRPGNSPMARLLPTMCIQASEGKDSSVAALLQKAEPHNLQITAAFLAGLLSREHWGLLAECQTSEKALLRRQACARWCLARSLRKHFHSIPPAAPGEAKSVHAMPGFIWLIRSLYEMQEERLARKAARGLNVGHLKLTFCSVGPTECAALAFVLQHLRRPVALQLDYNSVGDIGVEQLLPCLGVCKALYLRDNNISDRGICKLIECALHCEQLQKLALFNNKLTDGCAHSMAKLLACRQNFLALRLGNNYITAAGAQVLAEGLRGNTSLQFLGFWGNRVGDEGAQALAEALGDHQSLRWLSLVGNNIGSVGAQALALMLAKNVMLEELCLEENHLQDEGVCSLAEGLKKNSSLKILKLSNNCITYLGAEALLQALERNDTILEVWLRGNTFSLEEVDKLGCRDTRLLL

On to `O=C(CCN(CCO)Cc1ccccc1)Nc1ccc(Br)cc1`, for which the IC50 in [1] was > 14.6 µM (not active); in test [2], 17.6 µM (not active).
As to `O=[N+]([O-])c1ccc(Cl)c(/C=C/c2cc(C(F)(F)F)nc(O)n2)c1`, the EC50 in test [3] was > 20 µM (inactive); in test [4] it was 1.8 µM (active); in the test on HEK293 [6], 6.85 µM (active); in [13] it was > 150 µM (inactive). The IC50 at Tumor necrosis factor is 10.3 µM (active); with HEK293 [5] it was 11.8 µM (inactive); in test [7], 4.4 µM (active); in the test with HEK293 [8], > 20 µM (inactive); in [9], > 100 µM (not active); in the test with HEK293 [10] it was 10.2 µM (active). Also, the IC50 is > 20 µM (inactive) in the test with HEK293 [11], > 20 µM (inactive) with HEK293 [12] and 46.4 µM (active) in [14].
On to `Oc1c(C(c2ccccn2)N2CCCCC2)cc(Cl)c2cccnc12` (stereo not drawn), for which the EC50 with Streptococcus was 15.4 µM (active); in test [18], 6.02 µM (active); in [19], 81.1 µM (not active); on Streptokinase A it was > 150 µM (not active). Further, the IC50 in [15] was 42.3 µM (not active); in test [16], 2.48 µM (active); at Nonstructural protein 1 it was 8.02 µM (active); in test [17], 17 µM (inactive). Further, the CC50 in the test with Vero is 31.4 µM (active).
As to `CCCCNC(=O)C1CCCN1C(=O)Nc1cccc(OC)c1` (stereo not drawn), the EC50 in [20] was > 50 µM (not active).
`CN1C(=O)N(c2cccc3ccccc23)C(n2cncn2)C1(C)C` (stereo not drawn): the IC50 was 1.8 µM (active) at Aspartyl aminopeptidase and > 59.6 µM (not active) against Procathepsin L.
Consider `C=C(C)C(O)C(CC/C=C(\C)C(=O)OCC)OC` (stereo not drawn), for which, on Cytochrome P450 2D6, the AC50 is 3.16 µM (inconclusive).

Usually IC50 stands for the concentration that inhibits the measured activity by half. Broadly, the EC50 is the concentration giving half of the maximal effect. By CC50 is commonly meant the concentration that lowers cell viability or growth by half.
